# Source: the supplement of paper PMC5770543
# ± gives the standard deviation.
# Legend:
# [1] = tested on: Toxoplasma gondii RH tachyzoites; experiment: % growth inhibition vs DMSO (48 h luciferase); higher = more inhibition; details: 10 µM;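 note: tested in triplicate wells of 96-well plates on confluent HFF monolayers, with 1% DMSO wells as negative control in four replicates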
# [2] = tested on: Plasmodium falciparum 3D7; experiment: % inhibition of schizont-to-ring transition vs DMSO; higher = more inhibition
# Outline: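 Tightly synchronised P. falciparum schizonts (about 40–42 hours post-invasion, 1% parasitemia, 2.5% hematocrit, AlbuMAX-supplemented RPMI) were exposed to compound at 1, 3 or 10 µM, with vehicle and positive controls. Cells were glutaraldehyde-fixed, Triton-permeabilised, stained with Hoechst 33342 and counted by flow cytometry (at least 100,000 events). Schizont-to-ring transition inhibition is new ring formation relative to vehicle controls, averaged over three experiments.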
# [3] = tested on: Plasmodium falciparum 3D7; experiment: EC50 growth inhibition (60 h, SYBR Green); details: stage: ring-stage start
Structure (SMILES),% growth inhibition [1],% inhibition of schizont-to-ring transition ([2]; 1 µM),% inhibition of schizont-to-ring transition ([2]; 3 µM),% inhibition of schizont-to-ring transition ([2]; 10 µM),EC50 growth inhibition [3]
Cc1cccc(-n2ncc3c(O)nc(-n4nc(C)cc4NC(=O)c4cc5ccccc5o4)nc32)c1,30.2 ± 52%,16.7%,23.7%,27.8%,
CC1CC(C)CN(C(=O)c2ccc(Cl)cc2Cl)C1 (stereo unspecified),31.6 ± 5%,< 0%,< 0%,13.8%,1.02 µM
COc1ccc(-c2cc(=O)oc3c4c(ccc23)OCN(Cc2ccc(F)cc2)C4)cc1,63.1 ± 3.1%,< 0%,10%,48.3%,4.11 µM
FC(F)(F)c1cccc(CNC2CCN(CCc3ccccc3)CC2)c1,45.5 ± 8.4%,23.2%,60%,69.5%,0.201 µM
Cc1cc(C)cc(Nc2cc(C)nc3nc(C(F)(F)F)nn23)c1,53.7 ± 4%,46.6%,56.5%,59.8%,0.0568 µM
CCOc1c(Br)cc(C2C(C(=O)OC)=CN(C)C=C2C(=O)OC)cc1OC,70.4 ± 17%,49.6%,75.9%,79.6%,0.48 µM
CCN1CCN(c2cc(C)c3cc(NC(=O)c4ccc(OC)c(OC)c4)ccc3n2)CC1,56.5 ± 4.2%,21.3%,45.6%,63.3%,0.814 µM
O=C(CCl)NCCOc1ccc(Cl)cc1Cl,66.2 ± 5.8%,12.1%,24.7%,43.1%,0.717 µM
CCCc1c(C)nc2ccc(Br)cc2c1O,39.6 ± 25%,17%,24%,44.8%,4.28 µM
Cc1ccc(OCCCCCCNCCO)c(C)c1,76.2 ± 4.2%,6.39%,6.91%,13.8%,2.87 µM
O=C(Nc1cccc(-c2nc3ccccc3[nH]2)c1)c1cccc(NC(=O)c2ccco2)c1,48.6 ± 19%,28.5%,37.6%,52%,6.23 µM
CCOC(=O)c1ccc2nc(-c3ccccc3)cc(O)c2c1,72.2 ± 6%,20.2%,29.4%,44.6%,0.195 µM
COc1cc(OC)cc(N2C(=O)N(Cc3ccc(C(C)(C)C)cc3)c3ccccc3S2(=O)=O)c1,57.3 ± 12%,13.8%,15.2%,47.7%,3.5 µM
Cn1c(=O)n(C)c2cc(CNCCNc3ccnc4cc(Cl)ccc34)ccc21,25.7 ± 41%,38.4%,37.2%,33.7%,0.0648 µM
Cc1ccccc1OCCSc1nc2ccc(NC(=O)c3ccccc3)cc2s1,29.6 ± 11%,32%,33%,43.1%,
CCOc1ccc2c(c1)CN(Cc1ccc(Cl)cc1)CO2,24.6 ± 13%,< 0%,11.2%,31.5%,3.96 µM
CCOC(=O)c1c(C)n(-c2ccc(Cl)cc2)c2ccc(OC(=O)C=Cc3ccccc3)cc12,69.3 ± 5%,5%,7.44%,21.6%,1.02 µM
O=C1CC(O)(C(F)(F)C(F)(F)F)Oc2ccccc21 (stereo unspecified),65.3 ± 2.5%,5.46%,15.3%,47.7%,3 µM
CCC(=O)Nc1nnc(Cc2ccc(OC)c(OC)c2)s1,56.6 ± 7.6%,4.3%,5.07%,13.6%,
COCCn1c(C)nc2ccccc2c1=O,57.4 ± 3.5%,6.75%,13.7%,31.5%,1.52 µM

Structure (SMILES),% growth inhibition [1],% inhibition of schizont-to-ring transition ([2]; 1 µM),% inhibition of schizont-to-ring transition ([2]; 3 µM),% inhibition of schizont-to-ring transition ([2]; 10 µM),EC50 growth inhibition [3]
CCOc1cc(Br)c(C(C)NC(=O)c2cccc(OC)c2)cc1OCC (stereo unspecified),34.7 ± 18%,29.1%,67.8%,78%,0.427 µM
Cc1ccc(Cn2c(N3CCC(C(=O)NCc4cccs4)CC3)nc3ccccc32)cc1,66.1 ± 3.6%,47.3%,68%,69.8%,0.744 µM
O=C(Nc1ccccc1O)c1ccc(-c2ccc(Cl)cc2Cl)o1,23.8 ± 5.9%,28.6%,26.9%,48%,1.67 µM
Cc1ccc(-c2cc3c(nn2)-c2ccccc2C3=O)cc1,< 0%,33.1%,51.8%,59.3%,0.214 µM
COc1ccc(/C=C2/SC(=Nc3ccccc3)NC2=O)cc1,22.4 ± 12%,10.4%,23%,53%,9.09 µM
c1ccc(Cn2c(N=Nc3c(Nc4ccccc4)ccc4ccccc34)nc3ccccc32)cc1,29.1 ± 12%,14.6%,25.9%,52.2%,3.52 µM
COC(=O)c1ccc(Cl)c2c1C1C=CCC1C(c1cccc3ccccc13)N2 (stereo unspecified),55.6 ± 32%,8.04%,15%,46.6%,6.22 µM
CCN(CC)CCNc1ccnc2cc(Cl)ccc12,45.2 ± 3.8%,73.3%,75.3%,77.3%,0.0211 µM
CCCCOc1ccc(C(=O)Nc2cc(C)on2)cc1,< 0%,4.53%,20.6%,35.9%,5.76 µM
CCCN(CCC)CCCNC(=O)c1cc2c(-c3ccc(OC)c(OC)c3)nn(C)c2s1,41.4 ± 13%,14.9%,37.6%,68%,1.12 µM
N=c1c2ccccc2nnn1-c1cccc(C(F)(F)F)c1,64.1 ± 4.6%,44.5%,48.1%,54.3%,5.76 µM
CCCCCC(=O)N1c2ccccc2N=C2CC(c3ccc(OC)c(OC)c3)CC(O)=C2C1c1ccc(C(F)(F)F)cc1 (stereo unspecified),60.4 ± 3%,47.1%,59.5%,73.2%,0.205 µM
C=C(C)CCC(C)N1CCC(N2CCC(C(=O)NCCc3ccccc3)CC2)CC1 (stereo unspecified),20.9 ± 16%,< 0%,1.71%,48%,3.96 µM
FC(F)(F)c1cccc(Nc2nc(-c3ccccc3)nc3ncccc23)c1,51.1 ± 1.4%,24.9%,33.8%,42.3%,
COc1ccc(C2=C(c3ccc(OC)cc3)C3(c4ccccc4)C(=O)C2(c2ccccc2)C2C(=O)N(c4ccc(C)cc4)C(=O)C23)cc1 (stereo unspecified),41.5 ± 7.4%,< 0%,< 0%,24.9%,
CC(C)(C)c1ccc(C(=O)Nc2c3c(nn2-c2cccc(Cl)c2)CSC3)cc1,46.7 ± 4.1%,15.4%,19.9%,32.6%,
CCCCc1ccc(NS(=O)(=O)c2cc3c4c(c2)CCN4C(=O)CC3)cc1,36.5 ± 32%,12%,12.8%,34.4%,
COc1ccc2nc(N)nc(C)c2c1,41.7 ± 16%,2.26%,6.22%,17.5%,
COc1ccc(C(=O)NC(c2ccc(Cl)cc2Cl)c2cc(Cl)c3cccnc3c2O)cc1 (stereo unspecified),32.1 ± 5.2%,19.2%,19.5%,25.5%,
